Results published in patent US4853221A, “Method for treating non-small cell lung cancer, head and neck cancers and breast cancer” (Warner-Lambert Company, priority 1987, dated 1989).

Experiments:
[1] = tested on: Advanced Stage P388 Leukemia; type: in vivo, mouse; settings: Test 2
Procedure: (§1) Several studies were carried out to determine the potential for therapeutic synergy of trimetrexate with several clinically active anticancer agents. […] (See, for example, Vendetti, "Relevance of Transplantable Animal-Tumor Systems to the Selection of New Agents for Clinical Trial," Pharmacological Basis of Cancer Chemotherapy. Williams and Wilkins, Baltimore, 1975, and Simpson Herren, et al., "Evaluation of In Vivo Tumor Models for Predicting Clinical Activity for Anticancer Drugs," Proc. Am. Assoc. Cancer Res., 26: 330 (1985).
(§2) Differences in cell kill of greater than ten-fold (one log) were considered indicative of therapeutic synergy.
(§3) CD2F1 mice were quarantined for at least two weeks prior to allocation to test groups. P388 leukemia was passaged in DBA2 mice according to standard protocols of the National Cancer Institute. On Day 0 of a given test, all mice in the test were randomized, injected intraperitoneally with suitably diluted ascites fluid from P388 tumor-bearing donor mice and rerandomized to test cages.
The initial inoculum for all but titration groups was 10^6 cells as determined by hemocytometer count. […]
(§4) Group average weights were determined for all groups on Days 1, 5, and 9 for "early stage" P388 tests and on Days 4, 8, and 12 for "advanced stage" P388 tests. Animals were monitored for life span. […]

[2] = tested on: Early Stage P388 Leukemia; test: Combination chemotherapy, therapeutic synergy against early stage P388 leukemia; type: in vivo, mouse
Procedure: as §1, §2, §3
The initial inoculum for all but titration groups was 10^6 cells as determined by hemocytometer count. Each experiment contained an internal control and tumor titration which enabled the determination of the tumor doubling time and estimates of the log cell kill and number of tumor cells surviving treatment.
Drug treatment was begun either on Day 1 or on Day 4 depending upon the relative activity of the agents being tested.
All of the drugs were injected within one hour of dissolution, with the exception of trimetrexate which was made up fresh twice daily. All mice were treated on the basis of average cage-group weight.
In drug combination regimens, trimetrexate was given approximately 30 minutes before the other therapeutic agents when the route of administration of the other agent was ip. […]
as §4

Breast tumor = test: Human tumor cloning system, breast tumors; type: cell-based; settings: methotrexate 0.3 μg/ml, one hour; 10 specimens
Source text: (§5) The activity of trimetrexate was compared with that of methotrexate in tests with a human tumor cloning system (Latham, et al., Proc. Am. Assoc. Cancer Res., 24: 278 (1983)). The data from these tests appear in Table III were the activities are expressed as the numbers of tumors with 50% or greater reduction in tumor colony forming units after one hour exposure to the drug.

Colon tumor = test: Human tumor cloning system, colon tumors; type: cell-based; settings: methotrexate 0.3 μg/ml, one hour; 9 specimens
Source text: as §5

Ovarian tumor = test: Human tumor cloning system, ovarian tumors; type: cell-based; settings: methotrexate 0.3 μg/ml, one hour; 6 specimens
Source text: as §5

AML K-562 = test: Inhibition of AML K-562 cell growth in vitro; type: cell-based, human; settings: Homo sapiens, K562, 48 h, read-out: ED50
Procedure: (§6) Logarithmically growing L1210 cells (approximately 3×10^5 cells/ml) were diluted with Fischer's medium (containing 10% horse serum) to an approximate concentration of 5×10^4 cells/ml. Cells were planted in duplicate into 15 ml culture tubes containing either no drug or various amounts of drug, and incubated for 48 hours at 37° C. before being counted.
(§7) Trimetrexate was also evaluated in a similar manner side-by-side with methotrexate for its effect on the growth of three additional murine cell lines (L5178Y, Sarcoma-180, and Walkler-256) and three human cell lines (acute myelogenous leukemia K-562, T-cell 8402, and B-cell 8392), propagated in vitro.

Renal tumor = test: Human tumor cloning system, renal tumors; type: cell-based; settings: methotrexate 0.3 μg/ml, one hour; 6 specimens
Source text: as §5

B-Cell 8392 = test: Inhibition of B-Cell 8392 growth in vitro; type: cell-based, human; settings: Homo sapiens, B-cell, 48 h, read-out: ED50
Procedure: as §6, §7

T-Cell 8402 = test: Inhibition of T-Cell 8402 growth in vitro; type: cell-based, human; settings: Homo sapiens, T-cell, 48 h, read-out: ED50
Procedure: as §6, §7

Melanoma = test: Human tumor cloning system, melanoma; type: cell-based; settings: methotrexate 0.3 μg/ml, one hour; 5 specimens
Source text: as §5

Lung tumor = test: Human tumor cloning system, lung tumors; type: cell-based; settings: methotrexate 0.3 μg/ml, one hour; 8 specimens
Source text: as §5

Miscell. tumors = test: Human tumor cloning system, miscellaneous tumors; type: cell-based; settings: methotrexate 0.3 μg/ml, one hour; 10 specimens
Source text: as §5

L1210 cells = test: Inhibition of L1210 cell growth in vitro; type: cell-based, murine; settings: Mus musculus, L1210, 48 h, read-out: ED50 for L1210 Cells
Procedure: Two leukemia cell lines (L1210 and L5178Y) and two solid tumor cell lines (Sarcoma 180 and Walker 256) were used in these studies.
as §6
*ED50 = the concentration of drug required to reduce the cell count
to 50%, determined by plotting the cell count versus drug concentration.

human tumor cultures = test: Human tumor cloning system, all tumors; type: cell-based
Source text: as §5

N.N.[Cl][Pt][Cl] [Cisplatin, cis-Diamminedichloroplatinum (II)]
single agent activity [1]: considerably less active as a single agent

COc1cccc2c1C(=O)c1c(O)c3c(c(O)c1C2=O)C[C@@](O)(C(=O)CO)C[C@@H]3O[C@H]1C[C@H](N)[C@H](O)[C@H](C)O1 [Doxorubicin, (8S,10S)-10-[(3-Amino-2,3,6-trideoxy-α-L-lyxo-hexopyranosyl)oxy]-8-glycoloyl-7,8,9,10-tetrahydro-6,8,11-trihydroxy-1-methoxy-5,12-naphthacenedione]
single agent activity ([2]; Test 1): somewhat less active than expected

CN(Cc1cnc2nc(N)nc(N)c2n1)c1ccc(C(=O)N[C@@H](CCC(=O)O)C(=O)O)cc1 [Methotrexate, N-[4-[[(2,4-diamino-6-pteridinyl)methyl]methylamino]benzoyl]-L-glutamic acid, reference compound]
Number of Tumors with 50% or Greater Decrease in Tumor Colony Forming Units (Breast tumor): 1 | Number of Tumors with 50% or Greater Decrease in Tumor Colony Forming Units (Colon tumor): 2 | Number of Tumors with 50% or Greater Decrease in Tumor Colony Forming Units (Ovarian tumor): 0 | IC50 (AML K-562): 50 nM | Number of Tumors with 50% or Greater Decrease in Tumor Colony Forming Units (Renal tumor): 1 | IC50 (B-Cell 8392): 25 nM | IC50 (T-Cell 8402): 25 nM | Number of Tumors with 50% or Greater Decrease in Tumor Colony Forming Units (Melanoma): 1 | Number of Tumors with 50% or Greater Decrease in Tumor Colony Forming Units (Lung tumor): 1 | Number of Tumors with 50% or Greater Decrease in Tumor Colony Forming Units (Miscell. tumors): 1 | IC50 (L1210 cells): 8 nM | human tumor cultures sensitive to methotrexate and resistant to trimetrexate (human tumor cultures; 4/54): 7% | Number of Tumors with 50% or Greater Decrease in Tumor Colony Forming Units (human tumor cultures; Totals, methotrexate 0.3 μg/ml, one hour, 54 specimens): 7

CC[C@]1(O)C[C@H]2CN(CCc3c([nH]c4ccccc34)[C@@](C(=O)OC)(c3cc4c(cc3OC)N(C=O)[C@H]3[C@@](O)(C(=O)OC)[C@H](OC(C)=O)[C@]5(CC)C=CCN6CC[C@]43[C@@H]65)C2)C1 [Vincristine, 22-Oxo-vincaleukoblastine]
single agent activity ([2]; Test 2): the more active of the single agents
